From PMC8587000, “Pyridinone Derivatives as Interesting Formyl Peptide Receptor (FPR) Agonists for the Treatment of Rheumatoid Arthritis” (Molecules, 2021)

Experiments:
FPR1 = molecular target: T1, FPR1 (Homo sapiens, UniProt P21462); assay: Ca2+ mobilization in FPR1-transfected HL60 cells; type: cell-based; details: for Emax: HL-60, read-out: FPR1-HL60 Efficacy (converted)
T1 construct: expressed in transfected cells; host or cells: HL60 (human promyelocytic leukemia), stably transfected; gift from Dr. Marie-Josephe Rabiet
T1 sequence (P21462 1-350): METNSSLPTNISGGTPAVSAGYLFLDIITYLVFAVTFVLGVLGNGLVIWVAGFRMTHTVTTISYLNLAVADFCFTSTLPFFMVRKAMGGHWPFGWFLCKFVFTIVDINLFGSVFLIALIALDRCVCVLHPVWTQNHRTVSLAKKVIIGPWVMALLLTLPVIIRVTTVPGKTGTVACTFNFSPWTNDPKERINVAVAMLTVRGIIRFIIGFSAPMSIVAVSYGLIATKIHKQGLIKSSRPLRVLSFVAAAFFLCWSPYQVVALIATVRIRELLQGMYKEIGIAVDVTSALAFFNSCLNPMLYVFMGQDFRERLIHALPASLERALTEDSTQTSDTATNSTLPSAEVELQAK
Procedure: (§1) Human promyelocytic leukemia HL60 cells stably transfected with FPR1 (FPR1-HL60 cells) or FPR2 (FPR2-HL60 cells) (kind gift from Dr. Marie-Josephe Rabiet, Université Joseph Fourier, Grenoble, France) were cultured in RPMI 1640 medium supplemented with 10% heat-inactivated fetal calf serum, 10 mM HEPES, 100 μg/mL streptomycin, 100 U/mL penicillin, and G418 (1 mg/mL). G418 was removed in the last round of culture before assays were performed.

FPR2 = molecular target: T2, FPR2 (Homo sapiens, UniProt P25090); assay: Ca2+ mobilization in FPR2-transfected HL60 cells; type: cell-based; details: for Emax: HL-60, read-out: FPR2-HL60 Efficacy (converted); for selectivity index (SI) FPR1/FPR2: ratio of EC50 FPR1-HL60 / FPR2-HL60
T2 construct: expressed in transfected cells; host or cells: HL60 (human promyelocytic leukemia), stably transfected; gift from Dr. Marie-Josephe Rabiet
T2 sequence (P25090 1-351): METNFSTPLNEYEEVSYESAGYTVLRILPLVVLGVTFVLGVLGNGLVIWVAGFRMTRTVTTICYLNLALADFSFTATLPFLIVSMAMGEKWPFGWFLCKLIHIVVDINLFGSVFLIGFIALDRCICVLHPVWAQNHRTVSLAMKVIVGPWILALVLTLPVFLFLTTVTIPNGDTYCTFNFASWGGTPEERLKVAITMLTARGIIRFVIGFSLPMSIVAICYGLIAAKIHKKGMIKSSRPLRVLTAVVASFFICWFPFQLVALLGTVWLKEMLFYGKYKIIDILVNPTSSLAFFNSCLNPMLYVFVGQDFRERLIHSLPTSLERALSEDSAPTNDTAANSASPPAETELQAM
Procedure: as §1

human neutrophils (hPMN) = assay: Ca2+ mobilization in human neutrophils (hPMN); type: cell-based; details: Neutrophil; for Emax: read-out: hPMN Efficacy (converted)
From the text: Blood was collected from healthy donors in accordance with a protocol approved by the Institutional Review Board at Montana State University. Neutrophils were purified from the blood using dextran sedimentation, followed by Histopaque 1077 gradient separation and hypotonic lysis of red blood cells. Isolated neutrophils were washed twice and resuspended in HBSS^-. Neutrophil preparations were routinely >95% pure, as determined by light microscopy, and >98% viable, as determined by trypan blue exclusion.
Changes in intracellular Ca^2+ were measured with a FlexStation II scanning fluorometer (Molecular Devices, Sunnyvale, CA, USA). The cells, suspended in Hank’s balanced salt solution without Ca^2+ and Mg^2+ but with 10 mM HEPES (HBSS^−), were loaded with 1.25 μg/mL Fluo-4 AM dye and incubated for 30 min in the dark at 37 °C. After dye loading, the cells were washed with HBSS^- containing 10 mM HEPES, resuspended in HBSS^+ containing Ca^2+, Mg^2+, and 10 mM HEPES (HBSS^+), and aliquoted into the wells of flat-bottom, half-area-well black microtiter plates (2 × 10^5 cells/well). For the evaluation of direct agonist activity, compounds of interest were added from a source plate containing dilutions of test compounds in HBSS^+, and changes in fluorescence were monitored (λex = 485 nm, λem = 538 nm) every 5 s for 240 s at room temperature after the automated addition of compounds. Maximum change in fluorescence during the first 3 min, expressed in arbitrary units over baseline, was used to determine a response. […] Curve fitting (5–6 points) and calculation of median effective inhibitory concentrations (IC50) were performed by nonlinear regression analysis of the dose–response curves generated using Prism 9 (GraphPad Software, Inc., San Diego, CA, USA).

Row | EC50 (FPR1) | Emax (FPR1) | EC50 (FPR2) | Emax (FPR2) | EC50 (human neutrophils (hPMN)) | selectivity index (SI) FPR1/FPR2 (FPR2) | melting point | Structure (SMILES) | Emax (human neutrophils (hPMN))
1 | 4.4 ± 0.5 µM | 105% | 3.4 ± 0.7 µM | 130% | 7.5 ± 2.1 µM |  |  | COc1ccc(C(=O)c2cc(C(N)=O)c(=O)n(CC(=O)Nc3ccc(Br)cc3)c2C)cc1 [Compound 10, 1-{2-[(4-bromophenyl)amino]-2-oxoethyl}-5-(4-methoxybenzoyl)-6-methyl-2-oxo-1,2-dihydropyridine-3-carboxamide] | 120%
2 | 9.1 ± 1.4 µM | 140% | 1 ± 0.4 µM | 130% | 4 ± 0.9 µM | 9 | 261 to 263 °C (dec.) | CCCCNC(=O)c1cc(C#N)c(=O)n(CC(=O)Nc2ccc(Br)cc2)c1C [Compound 8d, 1-{2-[(4-Bromophenyl)amino]-2-oxoethyl}-N-butyl-5-cyano-2-methyl-6-oxo-1,6-dihydropyridine-3-carboxamide] | 70%
3 |  |  |  |  |  |  | 232 to 234 °C (dec.) | Cc1c(-c2cccc(O)c2)cc(C#N)c(=O)n1CC(=O)Nc1ccc(O)cc1 [Compound 14c, 2-[3-Cyano-5-(3-hydroxyphenyl)-6-methyl-2-oxopyridin-1(2H)-yl]-N-(4-hydroxyphenyl) acetamide] | 
4 | 16.3 ± 3.4 µM | 115% | 3.2 ± 0.6 µM | 140% | 6.4 ± 1.7 µM |  | 193 to 195 °C (dec.) | CCCOC(=O)c1cc(C#N)c(=O)n(CC(=O)Nc2ccc(Br)cc2)c1C [Compound 4a, Propyl 1-{2-[(4-bromophenyl)amino]-2-oxoethyl}-5-cyano-2-methyl-6-oxo-1,6-dihydropyridine-3-carboxylate] | 115%
5 | 21.2 ± 1.2 µM | 145% | 3.3 ± 0.2 µM | 120% | 11.4 ± 3.1 µM | 6 | 290 °C (dec.) | CCNC(=O)c1cc(C#N)c(=O)n(CC(=O)Nc2ccc(Br)cc2)c1C [Compound 8b, 1-{2-[(4-Bromophenyl)amino]-2-oxoethyl}-5-cyano-N-ethyl-2-methyl-6-oxo-1,6-dihydropyridine-3-carboxamide] | 80%
6 | 0.23 ± 0.06 µM | 115% | 0.23 ± 0.02 µM | 150% | 3.7 ± 0.7 µM |  | 282 to 284 °C (dec.) | Cc1c(-c2cccc(O)c2)cc(C#N)c(=O)n1CC(=O)Nc1ccc(Br)cc1 [Compound 14a, N-(4-Bromophenyl)-2-[3-cyano-5-(3-hydroxyphenyl)-6-methyl-2-oxopyridin-1(2H)-yl] acetamide] | 130%
7 | 7 ± 0.7 µM | 120% | 1.3 ± 0.1 µM | 135% | 7.2 ± 1.6 µM |  | 274 to 276 °C (dec.) | CCCNC(=O)c1cc(C#N)c(=O)n(CC(=O)Nc2ccc(Br)cc2)c1C [Compound 8c, 1-{2-[(4-bromophenyl)amino]-2-oxoethyl}-5-cyano-2-methyl-6-oxo-N-propyl-1,6-dihydropyridine-3-carboxamide] | 70%
8 |  |  |  |  |  |  | 127 to 129 °C | COc1cccc(-c2cc(C#N)c(=O)n(CC(=O)Nc3ccc(O)cc3)c2C)c1 [Compound 13c, 2-[3-Cyano-5-(3-methoxyphenyl)-6-methyl-2-oxopyridin-1(2H)-yl]-N-(4-hydroxyphenyl) acetamide] | 
9 |  |  |  |  |  |  | 128 to 130 °C | COc1cccc(-c2cc(C#N)c(=O)n(CC(=O)Nc3cccc(O)c3)c2C)c1 [Compound 13b, 2-[3-Cyano-5-(3-methoxyphenyl)-6-methyl-2-oxopyridin-1(2H)-yl]-N-(3-hydroxyphenyl) acetamide] | 
10 | 3.5 ± 0.9 µM | 100% | 9.2 ± 1.9 µM | 100% | 4.3 ± 1.5 µM |  | 180 to 182 °C (dec.) | Cc1c(C(=O)O)cc(C#N)c(=O)n1CC(=O)Nc1ccc(Br)cc1 [Compound 2, 1-{2-[(4-Bromophenyl)amino]-2-oxoethyl}-5-cyano-2-methyl-6-oxo-1,6-dihydropyridine-3-carboxylic acid] | 120%
11 | 29.7 ± 4.6 µM | 70% | 18.3 ± 4.2 µM | 75% | 27.9 ± 3.2 µM |  | 109 to 111 °C (dec.) | CCCCOC(=O)c1cc(C#N)c(=O)n(CC(=O)Nc2ccc(Br)cc2)c1C [Compound 4b, Butyl 1-{2-[(4-bromophenyl)amino]-2-oxoethyl}-5-cyano-2-methyl-6-oxo-1,6-dihydropyridine-3-carboxylate] | 110%
12 | 7.7 ± 1.7 µM | 180% | 8.4 ± 1.7 µM | 85% | 10.2 ± 1.9 µM |  | 223 to 224 °C | Cc1c(C(=O)OC(C)C)cc(C#N)c(=O)n1CC(=O)Nc1ccc(Br)cc1 [Compound 4c, Isopropyl 1-{2-[(4-bromophenyl)amino]-2-oxoethyl}-5-cyano-2-methyl-6-oxo-1,6-dihydropyridine-3-carboxylate] | 120%
13 | 24.1 ± 5.2 µM | 70% | 17.3 ± 4.1 µM | 75% | 17.9 ± 4.2 µM |  |  | COc1cccc(CCOC(=O)c2cc(C#N)c(=O)n(CC(=O)Nc3ccc(Br)cc3)c2C)c1 [Compound 4e, 3-Methoxyphenethyl 1-{2-[(4-bromophenyl)amino]-2-oxoethyl}-5-cyano-2-methyl-6-oxo-1,6-dihydropyridine-3-carboxylate] | 65%
14 | 2.2 ± 0.6 µM | 105% | 1.3 ± 0.4 µM | 115% | 4.9 ± 1.2 µM |  | > 300 °C (dec.) | CNC(=O)c1cc(C#N)c(=O)n(CC(=O)Nc2ccc(Br)cc2)c1C [Compound 8a, 1-{2-[(4-Bromophenyl)amino]-2-oxoethyl}-5-cyano-N,2-dimethyl-6-oxo-1,6-dihydropyridine-3-carboxamide] | 105%
15 | 40.1 ± 7.2 µM | 50% | 37.6 ± 5.6 µM | 150% |  |  | 187 to 189 °C (dec.) | Cc1c(-c2cccc(O)c2)cc(C#N)c(=O)n1CC(=O)Nc1cccc(O)c1 [Compound 14b, 2-[3-Cyano-5-(3-hydroxyphenyl)-6-methyl-2-oxopyridin-1(2H)-yl]-N-(3-hydroxyphenyl) acetamide] | 
16 | 5.2 ± 0.4 µM | 105% | 1.9 ± 0.2 µM | 110% | 7.8 ± 2.2 µM |  |  | COc1ccc(C(=O)c2cc(C#N)c(=O)n(CC(=O)Nc3ccc(Br)cc3)c2C)cc1 [Compound 11, N-(4-bromophenyl)-2-[3-cyano-5-(4-methoxybenzoyl)-6-methyl-2-oxopyridin-1(2H)-yl]acetamide] | 120%
17 | 20.8 ± 3.7 µM | 85% | 14.1 ± 3.8 µM | 100% | 12.7 ± 3.9 µM |  |  | COc1cccc(COC(=O)c2cc(C#N)c(=O)n(CC(=O)Nc3ccc(Br)cc3)c2C)c1 [Compound 4d, 3-Methoxybenzyl 1-{2-[(4-bromophenyl)amino]-2-oxoethyl}-5-cyano-2-methyl-6-oxo-1,6-dihydropyridine-3-carboxylate] | 65%
18 | 27.1 ± 4.2 µM | 60% | 8.4 ± 0.6 µM | 125% | 29.1 ± 3.6 µM |  |  | Cc1c(C(N)=O)cc(C#N)c(=O)n1CC(=O)Nc1ccc(Br)cc1 [Compound 6, 1-{2-[(4-Bromophenyl)amino]-2-oxoethyl}-5-cyano-2-methyl-6-oxo-1,6-dihydropyridine-3-carboxamide] | 90%
